Legend:
ERK = assay: Western blot analysis of MAPK phosphorylation: ERK; assay type: cell-based, human; conditions: BCC cells, pretreatment 30 min before 4 μM 6f-UVA; oligomycin 25 μM, ATP 1×10^−4M (FIG. 6B)
Procedure: (A) After exposure to different concentration of 6f-UVA, cell lysates were collected and immunoblotted with specific antibodies as indicated. For the internal control, the same amounts of protein extract were also probed with antibody against actin. (B) As a control, the expression level of p-ERK was determined in the presence of oligomycin (25 μM) and ATP (1×10^−4M)
Total cell extracts from cultured BCC cells were obtained by lysing the cells in ice-cold RIPA buffer (1×PBS, 1% NP-40, 0.5% sodium deoxycholate, 0.1% SDS) containing 100 μg/mL PMSF, 2 μg/mL aprotinin, 2 μg/mL leupeptin and 100 μg/mL NaF. After centrifugation at 14,000 g for 30 min, protein in the supernatants was quantified by Bradford method (Bio-Rad). Forty micrograms of protein per lane was applied in 10% SDS-poly-acrylamide gel. After electrophoresis, protein was transferred from the gel to polyvinylidene difluoride (PVDF) membrane (Millipore, Bedford, Mass.). The membranes were blocked at room temperature for 1 h in PBS+0.1% Tween 20 (PBS-T) containing 5% skim milk. After being briefly rinsed with PBS-T, the blots were probed with respective primary antibodies at room temperature for 2 h or at 4° C. overnight. Rabbit polyclonal antibodies against JNK (46 kDa), p38 (38 kDa), ERK (42, 44 kDa), and mouse monoclonal antibody against p-JNK, p-p38, p-ERK were purchased from Santa Cruz Biotechnology (Santa Cruz, Calif.). Mouse monoclonal antibody against actin was purchased from Chemicon Int. Inc. (Temecula, Calif.). For the blocking test, 25 μM oligomycin (Sigma, a mitochondria-specific F0F1 ATP synthase inhibitor) or 1×10^−4M ATP (Sigma) was added to the media 30 min before treated with 6f-UVA, respectively. The membrane was incubated with the corresponding horseradish peroxidase-labeled secondary antibody (Santa Cruz Biotechnology) at room temperature for 1 h. […] The relative amounts of specific proteins were quantified by densitometry scanning of X-ray films and analyzed by Eagle Eye Image System (Stratagene, La Jolla, Calif.)

BCC cells [1] = assay: Sub-G1 region analysis (PI, flow cytometry); assay type: cell-based, human; conditions: 4 μM for 4 hours, 1 J/cm^2 UVA, 24 h after irradiation
Procedure: BCC cells were treated with compounds at 4 μM and 1 J/cm^2 UVA. Twenty-four hours after irradiation, cells were harvested by trypsinization and centrifugation. Cell pellets were resuspended in 50% cold ethanol and fixed at −20° C. After fixation, cells were washed once with cold PBS and incubated in 0.5 mL of PBS containing 100 μg/mL RNase A for 20 min at 37° C. Cells were harvested by centrifugation at 400 g for 5 min, and 250 μL of PBS containing 50 μg/mL propidium iodide (PI) was added to the pellet. Thirty minutes later, the DNA contents of 10,000 events were measured by FACSscan flow cytometer (Elite ESP, Beckman Coulter, Brea, Calif.). Histograms were analyzed using Windows Multiple Document Interface software (WinMDI). Cells with DNA content less than that in untreated cells in G0/G1 were considered apoptotic. To investigate the effects of compounds 6 on cell cycle progression of BCC cells, the DNA content of cell nuclei was measured by flow cytometric analysis. […] BCC cells were treated with 4 μM agents for 4 hours followed by 1 J/cm^2 UVA irradiation. Twenty-four hours after irradiation, the PI reagent was used. Approximately 10000 cells from each group were analyzed with the FACScan flow cytometer. The apoptotic effects in 2.2% (control), 6.5% (6a), 13.4% (6b), 29.2% (6c), 24.4% (6d), 6.5% (6e), 35.4% (6f), 13.6% (6g), 13.8% (6h), 14.8% (6i) and 6.4% (6j) of sub-G1 DNA peak were obtained (% represented the percentage of cell counts).

BCC cells [2] = assay: Determination of intracellular ROS level (DCFH-DA); assay type: cell-based, human; conditions: BCC cells treated with 4 μM 6f-UVA, catalase 800 U/mL pretreatment
Procedure: (A) 6f-UVA induced ROS generation in BCC cells. Histogram of fluorescence vs cell count in BCC cells with various concentrations of 6f-UVA and stained with DCFH-DA. As a control, ROS was measured in the presence of catalase, a H2O2 scavenger. (B) The ΔΨmt of BCC cells after exposure to 6f-UVA. Cells were treated with 0, 2, and 4 μM Formula 6f for 4 h followed by 1 J/cm2 UVA irradiation, then stained with DiOC6 and analyzed immediately by flow cytometry as described under Materials and Methods. The number in M1 indicates the percentage of cells with reduced ΔΨmt. Approximately 10000 cells from each group were analyzed by flow cytometry. (C) Relative ATP levels were calculated as the percentage of the 0 μM level. Similar results were obtained in three independent experiments. *p<0.05, ** p<0.01 as compared with the control.
To evaluate intracellular reactive oxygen species (ROS) levels, 2′,7′-dichlorofluorescein diacetate (DCFH-DA, Molecular Probes) fluorescent dye was used to clarify this issue. The nonpolar DCFH-DA is converted to the polar derivative DCFH by esterases when it is taken up by the cell. DCFH is nonfluorescent but is rapidly oxidized to the highly fluorescent DCF by intracellular H2O2 or nitric oxide. […] The fluorescence of the samples was measured with a flow cytometer. The 2′,7′-dichlorofluorescein (DCF) data were recorded using FL-1 photomultiplier.

| melting point [°C] | Molecule | ERK activation after pretreatment (ERK) | sub-G1 DNA peak (apoptotic effects, percentage of cell counts) (BCC cells [1]) [%] | effect of catalase on increased ROS production (BCC cells [2]) |
| --- | --- | --- | --- | --- |
|  | CC[C@H]1/C=C/C=C/C[C@@H](C)[C@H](O)[C@@](C)(O)C(=O)[C@@H](C)[C@H](O)[C@@H](C)C(=O)[C@@H](C)[C@H](O)[C@@H](C)/C=C/C(=O)O[C@@H]2[C@H](C)[C@H](CC1)O[C@]1(CC[C@H](C)[C@H](C[C@@H](C)O)O1)[C@H]2C [oligomycin] | increased the ERK activation |  |  |
| 154 to 156 | CCc1ccc2nc(-c3ccc(N)cc3)sc2c1 [Formula 6c, 2-(4-Aminophenyl)-6-ethylbenzothiazole] |  | 29.2 |  |
| 152 to 154 | Cc1cc(-c2nc3ccc(C(F)(F)F)cc3s2)ccc1N [Formula 6j, 2-(4-Amino-3-methylphenyl)-6-trifluoromethylbenzothiazole] |  | 6.4 |  |
|  | Nc1ncnc2c1ncn2[C@@H]1O[C@H](COP(=O)(O)OP(=O)(O)OP(=O)(O)O)[C@@H](O)[C@H]1O [ATP] | not ATP increased the ERK activation |  |  |
| 171 to 173 | CCc1ccc2nc(-c3ccc(N)c(C)c3)sc2c1 [Formula 6h, 2-(4-Amino-3-methylphenyl)-6-ethylbenzothiazole] |  | 13.8 |  |
| 142 to 144 | COc1cccc2nc(-c3ccc(N)cc3)sc12 [Formula 6d, 2-(4-Aminophenyl)-7-methoxybenzothiazole] |  | 24.4 |  |
|  | COc1ccc2nc(-c3ccc(N)cc3)sc2c1 [Formula 6e, 2-(4-Aminophenyl)-6-methoxybenzothiazole] |  | 6.5 |  |
|  | Cc1cc(-c2nc3ccccc3s2)ccc1N [Formula 6g, 2-(4-Amino-3-methylphenyl)benzothiazole] |  | 13.6 |  |
| 151 to 153 | COc1ccc2nc(-c3ccc(N)c(C)c3)sc2c1 [Formula 6i, 2-(4-Amino-3-methylphenyl)-6-methoxybenzothiazole] |  | 14.8 |  |
|  | Nc1ccc(-c2nc3ccccc3s2)cc1 [Formula 6a, 2-(4-Aminophenyl)benzothiazole] |  | 6.5 |  |
|  | Cc1ccc2nc(-c3ccc(N)cc3)sc2c1 [Formula 6b, 2-(4-Aminophenyl)-6-methylbenzothiazole] |  | 13.4 |  |
|  | catalase: an effective H2O2 scavenger (Sigma) (protein, UniProt P00432 2-527, looked up) Catalase: ADNRDPASDQMKHWKEQRAAQKPDVLTTGGGNPVGDKLNSLTVGPRGPLLVQDVVFTDEMAHFDRERIPERVVHAKGAGAFGYFEVTHDITRYSKAKVFEHIGKRTPIAVRFSTVAGESGSADTVRDPRGFAVKFYTEDGNWDLVGNNTPIFFIRDALLFPSFIHSQKRNPQTHLKDPDMVWDFWSLRPESLHQVSFLFSDRGIPDGHRHMNGYGSHTFKLVNANGEAVYCKFHYKTDQGIKNLSVEDAARLAHEDPDYGLRDLFNAIATGNYPSWTLYIQVMTFSEAEIFPFNPFDLTKVWPHGDYPLIPVGKLVLNRNPVNYFAEVEQLAFDPSNMPPGIEPSPDKMLQGRLFAYPDTHRHRLGPNYLQIPVNCPYRARVANYQRDGPMCMMDNQGGAPNYYPNSFSAPEHQPSALEHRTHFSGDVQRFNSANDDNVTQVRTFYLKVLNEEQRKRLCENIAGHLKDAQLFIQKKAVKNFSDVHPEYGSRIQALLDKYNEEKPKNAVHTYVQHGSHLSAREKANL |  |  | significantly abrogated |
